# Target: T1, EGFR T790M/L858R/C797S (Homo sapiens, UniProt P00533, C797S/L858R/T790M)
# T1 construct: expressed in transfected cells; host or cells: BaF3 (murine pro-B) cells stably transduced with pCDH lentiviral vector, PGK promoter
# Test: EGFR Degradation Assay (Cellular), FRET quantification of total EGFR
# Assay type: cell-based
# Conditions: BaF3 EGFR mutant cell line (EGFR T790M/L858R/C797S); 4-hour incubation; total EGFR FRET kit; top concentration 1 μM, 11 points; read-out: IC50 [nM] mutant EGFR degradation
# Experimental: EGFR Degradation Assay (Cellular)
# The BaF3 parental line was purchased from DSMZ and grown in RPMI media supplemented with 10% FBS and 10 ng/mL interleukin 3 (IL-3) (Thermo Fisher Scientific). EGFR mutants ([…]) were cloned into the pCDH lentiviral vector (SystemBio) under the control of a PGK promoter and confirmed by DNA sequencing. The resulting gene expression vector for each mutant was mixed with packaging vectors and cotransfected into 2×10E6 HEK293T cells (ATCC) in 10 mL of DMEM media to generate lentiviral particles according to the manufacturers protocol (Origene).
# Three days post-transfection, the viral supernatant was harvested and filtered. In one well of a 12-well plate, 0.5 mL of viral supernatant was added to 2E6 Ba/F3 cells contained in 1.5 mL of RPMI media including 10% FBS, 10 ng/mL IL-3, and 5 μg/mL polybrene (Invitrogen). The plate was centrifuged at 2,000 rpm for 1 hour at room temperature and infected cells were kept in a tissue culture incubator overnight at 37° C. The cells were washed once in fresh BaF3 media and reseeded at 0.5E6 cells/well of a 12-well plate in media supplemented with 0.5 μg/mL puromycin. The cells were maintained in this media for 3 weeks. IL-3-independent, EGFR mutant transformed cells were routinely maintained in RPMI medium supplemented with 10% FBS.
# RPMI 1640 no-phenol red medium and fetal bovine serum (FBS) were purchased from Gibco (Grand Island, N.Y., USA). EGFR total kit and EGFR phospho-Y1068 kit were purchased from Cisbio (Bedford, Mass., USA). BaF3 EGFR mutant cell lines (EGFR T790M/L858R/C797S) cell line was generated in house, according to the protocol reported above. Cell culture flasks and 384-well microplates were acquired from VWR (Radnor, Pa., USA).
# EGFR degradation was determined based on quantification of FRET signal using EGFR total kit. The FRET signal detected correlates with total EGFR protein level in cells. Briefly, test compounds were added to the 384-well plate from a top concentration of 1 μM with 11 points, half log titration in quadruplicates. Then, BaF3 EGFR mutant cell lines (EGFR T790M/L858R/C797S) were added into 384-well plates at a cell density of 10000 cells per well. The plates were kept at 37° C. with 5% CO2 for 4 hours. After 4-hour incubation, 4× lysis buffer was added to the cells, and then microplate was agitated on plate shaker at 500 rpm for 30 minutes at room temperature. Next, total EGFR antibody solution was added to the cells and the cells were incubated for another 4 hours at room temperature. Finally, FRET signal was acquired on EnVision™ Multilabel Reader (PerkinElmer, Santa Clara, Calif., USA). The cells treated in the absence of the test compound were the negative control and lysis buffer with antibody solution only were the positive control.
# T1 sequence (P00533 25-1210 T790M/C797S/L858R): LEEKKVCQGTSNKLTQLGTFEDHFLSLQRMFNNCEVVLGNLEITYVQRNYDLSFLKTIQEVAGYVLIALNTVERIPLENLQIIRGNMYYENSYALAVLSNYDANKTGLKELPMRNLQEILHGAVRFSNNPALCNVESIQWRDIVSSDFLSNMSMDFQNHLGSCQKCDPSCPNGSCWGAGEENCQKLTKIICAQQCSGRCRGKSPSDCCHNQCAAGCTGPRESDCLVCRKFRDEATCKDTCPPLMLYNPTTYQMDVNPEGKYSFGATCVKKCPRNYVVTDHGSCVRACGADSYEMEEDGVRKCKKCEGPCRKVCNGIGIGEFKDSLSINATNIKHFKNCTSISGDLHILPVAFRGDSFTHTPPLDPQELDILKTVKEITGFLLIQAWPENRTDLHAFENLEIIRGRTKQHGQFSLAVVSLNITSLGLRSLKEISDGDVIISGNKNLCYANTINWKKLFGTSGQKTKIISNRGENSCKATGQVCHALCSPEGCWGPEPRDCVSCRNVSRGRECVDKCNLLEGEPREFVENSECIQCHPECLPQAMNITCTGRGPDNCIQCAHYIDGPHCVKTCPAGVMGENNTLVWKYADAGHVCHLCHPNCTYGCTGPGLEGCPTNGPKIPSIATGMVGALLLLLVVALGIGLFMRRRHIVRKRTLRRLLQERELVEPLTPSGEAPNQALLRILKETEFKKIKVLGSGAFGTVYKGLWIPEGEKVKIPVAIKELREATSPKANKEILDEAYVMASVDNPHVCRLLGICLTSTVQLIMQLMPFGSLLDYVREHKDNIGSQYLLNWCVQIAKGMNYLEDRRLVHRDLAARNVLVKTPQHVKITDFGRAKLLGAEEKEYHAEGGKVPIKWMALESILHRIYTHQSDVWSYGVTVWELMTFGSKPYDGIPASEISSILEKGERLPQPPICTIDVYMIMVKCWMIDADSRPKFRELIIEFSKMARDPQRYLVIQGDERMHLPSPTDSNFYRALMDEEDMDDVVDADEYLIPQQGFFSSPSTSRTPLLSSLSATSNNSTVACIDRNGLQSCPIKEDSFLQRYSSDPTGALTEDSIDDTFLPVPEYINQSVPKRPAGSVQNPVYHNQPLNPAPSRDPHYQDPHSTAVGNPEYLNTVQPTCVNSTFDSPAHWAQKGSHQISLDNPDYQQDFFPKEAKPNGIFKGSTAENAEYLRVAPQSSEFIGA
row,DC50,SMILES
1,49 nM,"CO[C@H]1CCN(c2nccc(Nc3cc4c(cn3)c(C(=O)NC3CCN(CCC5CCN(c6ccc7c(c6)C(=O)N(C6CCC(=O)NC6=O)C7=O)CC5)CC3)cn4C3CCCC3)n2)C[C@H]1F (mixture of isomers) [Example 15, 1-Cyclopentyl-N-[1-[2-[1-[2-[(3RS)-2,6-dioxo-3-piperidyl]-1,3-dioxo-isoindolin-5-yl]-4-piperidyl]ethyl]-4-piperidyl]-6-[[2-[(3R,4S)-3-fluoro-4-methoxy-1-piperidyl]pyrimidin-4-yl]amino]pyrrolo[3,2-c]pyridine-3-carboxamide]"
2,73 nM,"CO[C@H]1CCN(c2nccc(Nc3cc4c(cn3)c(C(=O)NC3CCN(CCCCC5CCN(c6ccc7c(c6)C(=O)N(C6CCC(=O)NC6=O)C7=O)CC5)CC3)cn4C(C)C)n2)C[C@H]1F (mixture of isomers) [Example 19, N-[1-[4-[1-[2-[(3RS)-2,6-Dioxo-3-piperidyl]-1,3-dioxo-isoindolin-5-yl]-4-piperidyl]butyl]-4-piperidyl]-6-[[2-[(3R,4S)(3S,4R)-3-fluoro-4-methoxy-1-piperidyl]pyrimidin-4-yl]amino]-1-isopropyl-pyrrolo[3,2-c]pyridine-3-carboxamide]"
3,44 nM,"COC1CCN(c2nccc(Nc3cc4c(cn3)c(C(=O)NC3CCN(CCCCCCNc5cccc6c5C(=O)N(C5CCC(=O)NC5=O)C6=O)CC3)cn4C(C)C)n2)CC1(F)F (racemic) [Example 3, 6-[[2-[(4RS)-3,3-Difluoro-4-methoxy-1-piperidyl]pyrimidin-4-yl]amino]-N-[1-[6-[[2-[(3RS)-2,6-dioxo-3-piperidyl]-1,3-dioxo-isoindolin-4-yl]amino]hexyl]-4-piperidyl]-1-isopropyl-pyrrolo[3,2-c]pyridine-3-carboxamide]"
4,26 nM,"CO[C@H]1CCN(c2nccc(Nc3cc4c(cn3)c(C(=O)NC3CCN(CCCOC5CN(c6cccc7c6C(=O)N(C6CCC(=O)NC6=O)C7=O)C5)CC3)cn4C(C)C)n2)C[C@H]1F (mixture of isomers) [Example 22, N-[1-[3-[1-[2-[(3RS)-2,6-Dioxo-3-piperidyl]-1,3-dioxo-isoindolin-4-yl]azetidin-3-yl]oxypropyl]-4-piperidyl]-6-[[2-[(3R,4S)-3-fluoro-4-methoxy-l-piperidyl]pyrimidin-4-yl]amino]-1-isopropyl-pyrrolo[3,2-c]pyridine-3-carboxamide]"
5,74 nM,"CO[C@H]1CCN(c2nccc(Nc3cc4c(cn3)c(C(=O)NC3CCN(CCCOC5CCN(c6cccc7c6C(=O)N(C6CCC(=O)NC6=O)C7=O)CC5)CC3)cn4C(C)C)n2)C[C@H]1F (mixture of isomers) [Example 17, N-[1-[3-[[1-[2-[(3RS)-2,6-Dioxo-3-piperidyl]-1,3-dioxo-isoindolin-4-yl]-4-piperidyl]oxy]propyl]-4-piperidyl]-6-[[2-[(3R,4S)-3-fluoro-4-methoxy-1-piperidyl]pyrimidin-4-yl]amino]-1-isopropyl-pyrrolo[3,2-c]pyridine-3-carboxamide]"
6,2 nM,"CO[C@@H]1CCN(c2nccc(Nc3cc4c(cn3)c(C(=O)NC3CCN(CCCCCCNc5cccc6c5C(=O)N(C5CCC(=O)NC5=O)C6=O)CC3)nn4C(C)C)n2)C[C@@H]1F (mixture of isomers) [Example 21, N-[1-[6-[[2-[(3RS)-2,6-Dioxo-3-piperidyl]-1,3-dioxo-isoindolin-4-yl]amino]hexyl]-4-piperidyl]-6-[[2-[(3S,4R)-3-fluoro-4-methoxy-1-piperidyl]pyrimidin-4-yl]amino]-1-isopropyl-pyrazolo[4,3-c]pyridine-3-carboxamide]"
7,28 nM,"CO[C@H]1CCN(c2nccc(Nc3cc4c(cn3)c(C(=O)NC3CCN(CCCCCCNc5cccc6c5C(=O)N(C5CCC(=O)NC5=O)C6=O)CC3)cn4C(C)C)n2)C[C@H]1F (mixture of isomers) [Example 5, N-[1-[6-[[2-[(3RS)-2,6-Dioxo-3-piperidyl]-1,3-dioxo-isoindolin-4-yl]amino]hexyl]-4-piperidyl]-6-[[2-[(3R,4S)(3S,4R)-3-fluoro-4-methoxy-1-piperidyl]pyrimidin-4-yl]amino]-1-isopropyl-pyrrolo[3,2-c]pyridine-3-carboxamide]"
8,85 nM,"CO[C@H]1CCN(c2nccc(Nc3cc4c(cn3)c(C(=O)NC3CCN(CCCCCCNc5cccc6c5C(=O)N(C5CCC(=O)NC5=O)C6=O)CC3)cn4C3CCCC3)n2)C[C@H]1F (mixture of isomers) [Example 10, 1-Cyclopentyl-N-[1-[6-[[2-[(3RS)-2,6-dioxo-3-piperidyl]-1,3-dioxo-isoindolin-4-yl]amino]hexyl]-4-piperidyl]-6-[[2-[(3R,4S)-3-fluoro-4-methoxy-1-piperidyl]pyrimidin-4-yl]amino]pyrrolo[3,2-c]pyridine-3-carboxamide]"
9,28 nM,"CO[C@H]1CCN(c2nccc(Nc3cc4c(cn3)c(C(=O)NC3CCN(CCC5CCN(c6ccc7c(c6)C(=O)N(C6CCC(=O)NC6=O)C7=O)CC5)CC3)cn4C(C)C)n2)C[C@H]1F (mixture of isomers) [Example 16, N-[1-[2-[1-[2-[(3RS)-2,6-Dioxo-3-piperidyl]-1,3-dioxo-isoindolin-5-yl]-4-piperidyl]ethyl]-4-piperidyl]-6-[[2-[(3R,4S)-3-fluoro-4-methoxy-1-piperidyl]pyrimidin-4-yl]amino]-1-isopropyl-pyrrolo[3,2-c]pyridine-3-carboxamide]"
10,5 nM,"CO[C@H]1CCN(c2nccc(Nc3cc4c(cn3)c(C(=O)NC3CCN(CCCC5CN(c6cccc7c6C(=O)N(C6CCC(=O)NC6=O)C7=O)C5)CC3)cn4C(C)C)n2)C[C@H]1F (mixture of isomers) [Example 24, N-[1-[3-[1-[2-[(3RS)-2,6-Dioxo-3-piperidyl]-1,3-dioxo-isoindolin-4-yl]azetidin-3-yl]propyl]-4-piperidyl]-6-[[2-[(3R,4S)-3-fluoro-4-methoxy-1-piperidyl]pyrimidin-4-yl]amino]-1-isopropyl-pyrrolo[3,2-c]pyridine-3-carboxamide]"
